Source: patent publication US11203576B2, “Aurora kinase and Janus kinase inhibitors for prevention of graft versus host disease” (H. LEE MOFFITT CANCER CENTER AND RESEARCH INSTITUTE, INC., priority 2016, dated 2021)
Where two headings read alike, the source gives them in different places. Each block holds one molecule with its values, some of them ahead of it.

Columns and labels:
[1] = test system: T-cells allostimulated by dendritic cells (DC); test: Allogeneic mixed leukocyte reaction (alloMLR), T-cell proliferation; assay type: cell-based, human
Description: Bulk donor T-cells were allostimulated with allogeneic DCs (DC:T-cell ratio of 1:30) as previously described (OneBlood, Tampa, Fla.)(15, 16, 20). […] As indicated, alloMLRs consisting of Treg depleted, naïve CD4^+ T-cells (Miltenyi Biotec Inc, San Diego, Calif.) were treated with a combination of ARL67156 (CD39 inhibitor, 125 μM, Sigma), AJI, or DMSO on day 0 to study the role of CD39 and ATP in this system. T-cell proliferation was measured on day 5 by a colorimetric assay (CellTiter 96 Aqueous One Solution Cell Proliferation Assay [MTS]; or CellTiter Blue, Promega, Madison, Wis.). Absorbance/optical density (OD) was analyzed at 490 nm or 590 nm, respectively. Proliferation (%)=(OD treated alloMLR−OD T-cells alone)/(OD DMSO alloMLR−OD T-cells alone)×100.

CD39 on iTreg = test: ATP hydrolysis assay; assay type: cell-based, human; settings: ARL67156 125 μM
Description: iTregs generated in the presence of AJI-241 (750 nM) or DMSO were plated in V-bottom 96 well plates in serum free media at a concentration of 75,000 cells per 100 μL. ARL67156 (125 μM) was added or not as indicated. A fixed dose of ATP (50 μM) was added to the cells and incubated at 37° C. for 45 minutes. ATP consumption was measured by a luminescence assay per the manufacturer's instructions (Promega, CellTiter-Glo Luminescent Cell Viability Assay) and read by a spectrofluorimeter. Percent consumption was calculated as (luminescence of test supernatant/luminescence of 50 μM ATP cell-free control supernatant)×100.

RORgammaT = RORgammaT expression by RT-PCR; assay type: cell-based, human; settings: TH17-polarizing medium, 5 days, vs DMSO
pSTAT5 (Y694) = test: IL-2-induced STAT5 phosphorylation in T-cells; assay type: cell-based, human; settings: vs DMSO or unstimulated controls
Description: As indicated, T cells were serum-starved in RPMI treated with DMSO diluent control, alisertib, TG101348, a combination of both inhibitors, AJI-214, or AJI-100 for 4 hours. IL-6-induced pSTAT3 or IL-2-induced pSTAT5 (Y694) was measured by flow cytometry.

STAT3 (target of JAK2) = test: STAT3 phosphorylation in T-cells (flow cytometry); assay type: cell-based, human; settings: in vitro, DC- or IL-6-stimulated, vs DMSO
Description: IL-6-induced pSTAT3 or IL-2-induced pSTAT5 (Y694) was measured by flow cytometry.

iTreg = iTreg differentiation and potency; assay type: cell-based, human; settings: for iTreg:allo Tconv ratio: 5-day MLRs; for iTreg:allo Tconv ratio / iTreg differentiation / absolute numbers of iTregs: vs DMSO; for iTreg differentiation / absolute numbers of iTregs: Treg-depleted naïve CD4+ T-cells, allogeneic DCs, 5 days; for suppressive capacity of iTregs generated in presence of inhibitor: standard suppression assay, no additional inhibitor added
Description: On day 5, iTregs were isolated and washed to minimize drug carry-over as reported. The T cells were harvested and surface-stained on day 5 for CD3, CD4, CD25, and CD127, followed by fixation and permeabilization (eBioscience) and Foxp3 staining. The absolute number of iTreg was calculated by flow cytometry using CountBright beads (Life Technologies). The purified iTregs were titrated against alloMLRs consisting of responder CD4+CD25− T cells (5×10^4) from the iTregs donor and fresh allogeneic DCs (1.6×10^3) to determine suppressive potency. T cell proliferation was determined by pulsing cells with [^3H]thymidine ([…]). Surface expression of CD39 and LAG3 was evaluated on the iTregs. iTregs production of CTLA4 was assessed by intracellular staining after a 5-hour treatment of PMA/ionomycin, with GolgiStop added during the last 4 hours of incubation. iTregs synthesis of IL-10 and TGF-β (Quansys Biosciences) was quantified from supernatants using multiplex cytokine assays after PMA/ionomycin stimulation.

GVHD = settings: mouse, in vivo; cited from earlier work
TH17 = test: IL-17 ELISPOT of DC-stimulated CD4+ T cells; assay type: cell-based, human; settings: DC-stimulated purified CD4+ T cells
Description: Naïve CD4^+ T cells were purified and allostimulated (DC/T cell ratio of 1:30) as reported (B. C. Betts et al., CD4^+ T cell STAT3 phosphorylation precedes acute GVHD, and subsequent TH17 tissue invasion correlates with GVHD severity and therapeutic response. J. Leukocyte Biol. (2015)). Alisertib ([…]), TG101348 (350 nM), both alisertib and TG101348, AJI-214 (750 nM), AJI-100 (750 nM), or DMSO control was added once on day 0. Medium was supplemented with IL-6 (1×10^5 IU/mL), TGF-β (4 ng/mL; R&D Systems), and anti-IFN-γ monoclonal antibody ([…]; eBioscience) to polarize TH17. After 5 days, the T cells were harvested, washed, and then plated at 35,000 cells per well in an IL-17 ELISPOT plate (R&DSystems). The CD4^+ T cells were stimulated with PMA/ionomycin, and the ELISPOT assay was performed according to the manufacturer's instructions.

[2] = test system: xenogeneic GVHD (NSG mice transplanted with human PBMCs); test: Xenogeneic GVHD model; assay type: in vivo; settings: alisertib 30 mg/kg daily, TG101348 45 mg/kg twice a day, oral gavage day 0 to +14
From the text: After transplantation and treatment with either AJI-100 or vehicle control, human T cells were isolated from recipient mouse spleens at day +14, stained for pH3Ser^10 or pSTAT3 (+IL-6 stimulation), and analyzed as described.
NOD scid gamma (NSG) mice (male or female, 6-24 weeks old) were purchased from Jackson Laboratory (Bar Harbor, Me., USA) and raised per an IACUC-approved protocol in adherence to the NIH Guide for the Care and Use of Laboratory Animals. Mice received either (i) alisertib (30 mg/kg daily), TG101348 (45 mg/kg twice a day), a combination of alisertib and TG101348, or vehicle (methylcellulose) by oral gavage or (ii) AJI-100 (50 mg/kg daily) or vehicle (50% polyethylene glycol, 15% 2-hydroxypropyl-b-cyclodextrin, and 10% DMSO in sterile saline) ip from day 0 to day +14.
Mice were monitored for GVHD clinical scores (K. R. Cooke et al., An experimental model of idiopathic pneumonia syndrome after bone marrow transplantation: I. The roles of minor H antigens and endotoxin. Blood 88, 3230 (1996)), weight, and premoribund status. As indicated, mice were euthanized on day +14 to study recipient spleen Tconv, Tregs, TH1, TH17, B cells, and T-cell signal transduction. Human CD4^+ Treg (CD25+, CD127^−, Foxp3^+), Tconv(CD25^+, CD127^+), TH1, TH17, and CD19^+ B cells residing in recipient spleens were quantified by flow cytometry. T-cell pH3 ser10 and PSTAT3 were evaluated by flow cytometry. IL-17 ELISPOTs were performed using isolated human T cells from recipient mouse spleen as described above. Tissue samples were prepared, stained (Ventana Medical Systems, Tucson, Ariz.), and imaged (Vista, Calif., USA) to identify human T-cells as previously described. All vertebrate animal work was IACUC-approved.

[3] = test system: H3 Ser10 (target of Aurora); test: H3 Ser10 phosphorylation in DC-allostimulated T-cells (flow cytometry); assay type: cell-based, human; settings: 5-day allogeneic DC stimulation; AJI 750 nM, alisertib 1.75 μM, TG101348 350 nM
Description: After 5 days, T cells were then harvested and directly fixed (Cytofix, BD Biosciences) for 10 min at 37° C. After washing with phosphate-buffered saline, the T cells were permeabilized with icecold methanol (90%, v/v) for at least 20 min at -20° C. The cells were stained for expression of CD3 and pH[…].

Bioavailability = settings: in vivo

Compound: CCN(CC)c1ncnc2c1ncn2[C@@H]1O[C@H](COP(=O)(O)OP(=O)(O)C(Br)(Br)P(=O)(O)O)[C@@H](O)[C@H]1O [ARL67156]
- T-cell inhibition by bisanilinopyrimidine (I)/AJI-214 on CD39 blockade ([1]; natural Treg-depleted CD4+ alloMLR, ARL67156 added): significantly weakened
- hydrolysis of ATP by AJI-treated iTregs on CD39 blockade (CD39 on iTreg): significantly impaired

Compound: Cc1cnc(Nc2ccc(OCCN3CCCC3)cc2)nc1Nc1cccc(S(=O)(=O)NC(C)(C)C)c1 [TG101348]
- RORgammaT expression in alloresponder CD4+ T-cells (RORgammaT): significantly decreases
- IC50 ([1]; Homo sapiens, TG101348 and alisertib added together at fixed ratio 1:5, read-out: IC50 of the combination, TG101348 concentration): 0.35 µM
- concentrations reducing alloreactive T-cell proliferation ([1]; alloMLR): ≥ 350 nM
- IL-2-induced STAT5 activation/phosphorylation in T-cells (pSTAT5 (Y694)): remained intact
- STAT3 (pSTAT3 Y705) phosphorylation in T-cells (STAT3 (target of JAK2)): only inhibited pSTAT3
- iTreg:allo Tconv ratio (iTreg): incrementally larger Treg:allo Tconv ratios
- iTreg differentiation / absolute numbers of iTregs (iTreg): less absolute numbers of iTregs and allo Tconv
- suppressive capacity of iTregs generated in presence of inhibitor (iTreg): improved iTreg function compared with DMSO

Compound: COc1cc(Nc2ncc3c(n2)-c2ccc(Cl)cc2C(c2c(F)cccc2OC)=NC3)ccc1C(=O)O [alisertib]
- onset of GVHD in mice (GVHD): significantly delayed the onset of GVHD
- RORgammaT expression in alloresponder CD4+ T-cells (RORgammaT): no effect
- TH17 (IL-17 ELISPOT) (TH17): no effect
- inhibition at 0.625 µM ([1]; Homo sapiens, T-cell, alisertib 625 nM, read-out: inhibition of proliferative response of T-cells in alloMLRs): 32.5%
- IC50 ([1]; Homo sapiens, T-cell, alisertib alone (Study 2 text), read-out: median inhibitory concentration (IC50), T cells in alloMLRs): 10 µM
- IC50 ([1]; Homo sapiens, T-cell, alisertib alone, read-out: IC50, proliferative response of T-cells in alloMLRs): 10 µM
- IC50 ([1]; Homo sapiens, TG101348 and alisertib added together at fixed ratio 1:5, read-out: IC50 of the combination, alisertib concentration): 1.75 µM
- IL-2-induced STAT5 activation/phosphorylation in T-cells (pSTAT5 (Y694)): remained intact
- median survival [2]: 41 days
- phosphorylation of histone 3 serine 10 (pH3 Ser10) in T-cells [3]: only inhibited pH3Ser^10
- iTreg:allo Tconv ratio (iTreg): incrementally larger Treg:allo Tconv ratios
- iTreg differentiation / absolute numbers of iTregs (iTreg): less absolute numbers of iTregs and allo Tconv
- suppressive capacity of iTregs generated in presence of inhibitor (iTreg): superior suppressive capacity

- bioavailability (Bioavailability): limited bioavailability
Compound: NC(=O)c1ccc(Nc2ncc(F)c(Nc3ccccc3Cl)n2)cc1 [bisanilinopyrimidine (I)]
